Experimental data from patent US9586986B2, “Substituted 7-deazapurine ribonucleosides for therapeutic uses” (Institute of Organic Chemistry and Biochemistry ASCR, v.v.i., priority 2014, dated 2017).

What was measured:
[1] = test system: HL60; assay: XTT cytotoxicity assay, HL-60; format: cell-based; settings: Homo sapiens, HL-60; 72 h incubation; read-out: XTT, IC50 HL60
Procedure, shortened: (§1)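 Cells seeded at 10,000 per well, compounds added after 24 h and incubated 72 h, then XTT (with N-methyl dibenzopyrazine methyl sulfate) for 2 h; absorbance at 495 nm. IC50 by non-linear regression.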

[2] = test system: BJ; assay: Cytostatic/cytotoxic MTT assay, BJ fibroblasts; format: cell-based; settings: Homo sapiens, non-malignant fibroblasts, 72 h, read-out: MTT, IC50 BJ
Procedure, shortened: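 Cells were seeded at 25,000-30,000 per well and pre-incubated 24 h before addition of four-fold compound dilutions in duplicate. After 72 h at 37 °C in 5% CO2, MTT was added for 1-4 h, formazan dissolved in 10% SDS (pH 5.5) overnight, and OD read at 540 nm; IC50 taken from dose-response curves.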

[3] = test system: HeLa S3; assay: XTT cytotoxicity assay, HeLa S3; format: cell-based; settings: Homo sapiens, HeLa S3; 72 h incubation; read-out: XTT, IC50 HeLa S3
Procedure, shortened: as §1

[4] = test system: HepG2; assay: XTT cytotoxicity assay, HepG2; format: cell-based; settings: Homo sapiens, HepG2; 72 h incubation; read-out: XTT, IC50 HepG2
Procedure, shortened: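 HepG2 cells seeded at 10,000/well, compounds added after 24 h and incubated 72 h at 37 °C, 5% CO2. Viability by XTT reduction (1 mg/mL XTT plus electron coupler), absorbance at 495 nm after 2 h; IC50 by non-linear regression.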

[5] = test system: HCT116; assay: Cytostatic/cytotoxic MTT assay, HCT116; format: cell-based; settings: Homo sapiens, HCT-116; 72 h incubation; read-out: MTT, IC50 HCT116
Procedure, shortened: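 Human cancer lines, including daunorubicin-resistant CEM-DNR (mrp-1/mdr-1 overexpressing) and paclitaxel-resistant K562-TAX (mdr-1), seeded 25,000-30,000 cells/well, pre-incubated 24 h, then treated in duplicate with four-fold dilutions for 72 h at 37° C, 5% CO2. MTT read-out at 540 nm; IC50 from dose-response curves.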

In the case of `CN(C)c1ncnc2c1c(I)cn2[C@@H]1O[C@H](CO)[C@@H](O)[C@H]1O` [Compound 4h, 4-Dimethylamino-5-iodo-7-(β-D-ribofuranosyl)-7H-pyrrolo[2,3-d]pyrimidine], the IC50 [1] is reported as 0.05 µM, the IC50 [2] is reported as 45.7 µM and the melting point is reported as 195 to 197 °C. For the same molecule, the IC50 [3] was 0.19 µM, the IC50 [4] was 13.9 µM and the IC50 [5] was 0.09 µM.

With `CNc1ncnc2c1c(-c1ccoc1)cn2[C@@H]1O[C@H](CO)[C@@H](O)[C@H]1O` [Compound 3b, 5-(Furan-3-yl)-4-methylamino-7-(β-D-ribofuranosyl)-7H-pyrrolo[2,3-d]pyrimidine] the IC50 [1] was > 15 µM, the IC50 [2] was 96.3 µM and the melting point was 90 to 97 °C. The IC50 [3] was > 20 µM, the IC50 [4] was > 20 µM and the IC50 [5] was > 20 µM.

For `CNc1ncnc2c1c(-c1ccccc1)cn2[C@@H]1O[C@H](CO)[C@@H](O)[C@H]1O` [Compound 3e, 4-Methylamino-5-phenyl-7-(β-D-ribofuranosyl)-7H-pyrrolo[2,3-d]pyrimidine], the IC50 [1] was > 20 µM, the IC50 [2] was > 100 µM and the melting point was 149 to 153 °C. For the same molecule, the IC50 [3] was > 20 µM, the IC50 [4] was > 20 µM and the IC50 [5] was > 20 µM.

In the case of `CNc1ncnc2c1c(-c1ccsc1)cn2[C@@H]1O[C@H](CO)[C@@H](O)[C@H]1O` [Compound 3d, 4-Methylamino-7-(β-D-ribofuranosyl)-5-(thiophen-3-yl)-7H-pyrrolo[2,3-d]pyrimidine], the IC50 [1] is reported as > 20 µM, the IC50 [2] is reported as > 100 µM and the melting point is reported as 135 to 138 °C. For the same molecule, the IC50 [3] was > 20 µM, the IC50 [4] was > 20 µM and the IC50 [5] was > 20 µM.

With `Cc1ncnc2c1c(-c1cccs1)cn2[C@@H]1O[C@H](CO)[C@@H](O)[C@H]1O` [Compound 5c, 4-Methyl-7-(β-D-ribofuranosyl)-5-(thiophen-2-yl)-7H-pyrrolo[2,3-d]pyrimidine] the IC50 [1] was 5.73 µM, the IC50 [2] was > 100 µM and the melting point was 110 to 111 °C. For the same molecule, the IC50 [3] was > 15 µM, the IC50 [4] was > 15 µM and the IC50 [5] was > 20 µM.

For `CSc1ncnc2c1c(-c1ccoc1)cn2[C@@H]1O[C@H](CO)[C@@H](O)[C@H]1O` [Compound 2b, 5-(Furan-3-yl)-4-methylsulfanyl-7-(β-D-ribofuranosyl)-7H-pyrrolo[2,3-d]pyrimidine], the IC50 [1] was 0.36 µM, the IC50 [2] was 98.8 µM and the melting point was 121 to 124 °C. The IC50 [3] was 5.39 µM, the IC50 [4] was > 15 µM and the IC50 [5] was 0.04 µM.

For `CSc1ncnc2c1c(-c1ccccc1)cn2[C@@H]1O[C@H](CO)[C@@H](O)[C@H]1O` [Compound 2e, 4-Methylsulfanyl-5-phenyl-7-(β-D-ribofuranosyl)-7H-pyrrolo[2,3-d]pyrimidine], the IC50 [1] was > 20 µM, the IC50 [2] was > 100 µM and the melting point was 169 to 170 °C. For the same molecule, the IC50 [3] was > 20 µM, the IC50 [4] was > 20 µM and the IC50 [5] was > 20 µM.

In the case of `CSc1ncnc2c1c(-c1ccsc1)cn2[C@@H]1O[C@H](CO)[C@@H](O)[C@H]1O` [Compound 2d, 4-Methylsulfanyl-7-(β-D-ribofuranosyl)-5-(thiophen-3-yl)-7H-pyrrolo[2,3-d]pyrimidine], the IC50 [1] is reported as 4.59 µM, the IC50 [2] is reported as 95.8 µM and the melting point is reported as 192 to 193 °C. The IC50 [3] was > 20 µM, the IC50 [4] was > 15 µM and the IC50 [5] was > 20 µM.

With `COc1ncnc2c1c(-c1ccccc1)cn2[C@@H]1O[C@H](CO)[C@@H](O)[C@H]1O` [Compound 1e, 4-Methoxy-5-phenyl-7-(β-D-ribofuranosyl)-7H-pyrrolo[2,3-d]pyrimidine] the IC50 [1] was > 20 µM, the IC50 [2] was > 100 µM and the melting point was 117 to 120 °C. The IC50 [3] was > 20 µM, the IC50 [4] was > 20 µM and the IC50 [5] was > 20 µM.

Work on `CN(C)c1ncnc2c1c(-c1ccoc1)cn2[C@@H]1O[C@H](CO)[C@@H](O)[C@H]1O` [Compound 4b, 4-Dimethylamino-5-(furan-3-yl)-7-(β-D-ribofuranosyl)-7H-pyrrolo[2,3-d]pyrimidine] yielded an IC50 [1] of 1.16 µM, an IC50 [2] of 99.2 µM and a melting point of 94 to 97 °C. For the same molecule, the IC50 [3] was 9.06 µM, the IC50 [4] was 12.5 µM and the IC50 [5] was > 20 µM.

Work on `COc1ncnc2c1c(-c1cccs1)cn2[C@@H]1O[C@H](CO)[C@@H](O)[C@H]1O` [Compound 1c, 4-Methoxy-7-(β-D-ribofuranosyl)-5-(thiophen-2-yl)-7H-pyrrolo[2,3-d]pyrimidine] yielded an IC50 [1] of 0.08 µM, an IC50 [2] of 62.8 µM and a melting point of 140 to 143 °C. It also gave an IC50 [3] of 1.76 µM, an IC50 [4] of 13.9 µM and an IC50 [5] of 0.08 µM.
